Values of other authors, collected in US20110177038A1, “Inhibition of Tumor Growth via Peroxiredoxin 3” (THE JOHNS HOPKINS UNIVERSITY, priority 2002, published 2011).

Tested on: MCF7/ADR cells
Conditions: free radical scavenger

For `CC(=O)C(=O)[O-].[Na+]` [sodium pyruvate], the “Inhibition of apoptosis after glucose withdrawal” value is given as “sufficient to inhibit apoptosis”.
